Where two headings read alike, the source gives them in different places.
How the values were obtained:
α-glucosidase (yeast) [1] = conditions: cited from earlier work; for Ki: literature values, read-out: Inhibition activity Ki, α-glucosidase (yeast)
β-glucosidase (almond) [2] = conditions: cited from earlier work
[3] = target: T1, α-galactosidase (green coffee beans) (Coffea arabica, UniProt Q42656); conditions: literature values; n.i. = no inhibition observed; cited from earlier work
T1 construct: purchased Sigma

α-glucosidase (rice) [4] = target: T2, α-glucosidase (rice) (Oryza sativa subsp. japonica, UniProt Q653V7); conditions: cited from earlier work; for Ki: literature values, read-out: Inhibition activity Ki, α-glucosidase (rice)
T2 construct: purchased Sigma

[5] = target: T3, α-mannosidase (jack beans) (Canavalia ensiformis, UniProt C0HJB3); conditions: cited from earlier work
T3 construct: purchased Sigma
T3 sequence (C0HJB3 1-562 limits assumed): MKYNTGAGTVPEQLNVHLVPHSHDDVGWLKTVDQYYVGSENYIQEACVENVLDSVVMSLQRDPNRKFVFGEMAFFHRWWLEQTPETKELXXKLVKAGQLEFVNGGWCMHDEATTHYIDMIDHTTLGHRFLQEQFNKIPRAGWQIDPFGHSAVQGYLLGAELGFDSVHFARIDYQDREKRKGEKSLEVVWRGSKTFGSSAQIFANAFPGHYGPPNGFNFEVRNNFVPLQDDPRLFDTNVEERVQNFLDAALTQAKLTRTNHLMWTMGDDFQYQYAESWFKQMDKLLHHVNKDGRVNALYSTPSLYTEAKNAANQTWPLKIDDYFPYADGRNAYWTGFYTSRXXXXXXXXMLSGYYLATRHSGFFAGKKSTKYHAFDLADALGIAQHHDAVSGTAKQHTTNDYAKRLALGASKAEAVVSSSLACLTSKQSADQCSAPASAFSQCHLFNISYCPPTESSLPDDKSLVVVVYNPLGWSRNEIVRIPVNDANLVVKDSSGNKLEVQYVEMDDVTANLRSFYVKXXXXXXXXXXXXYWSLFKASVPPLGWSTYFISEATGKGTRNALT
T3 sequence (C0HJB3 563-981 limits assumed): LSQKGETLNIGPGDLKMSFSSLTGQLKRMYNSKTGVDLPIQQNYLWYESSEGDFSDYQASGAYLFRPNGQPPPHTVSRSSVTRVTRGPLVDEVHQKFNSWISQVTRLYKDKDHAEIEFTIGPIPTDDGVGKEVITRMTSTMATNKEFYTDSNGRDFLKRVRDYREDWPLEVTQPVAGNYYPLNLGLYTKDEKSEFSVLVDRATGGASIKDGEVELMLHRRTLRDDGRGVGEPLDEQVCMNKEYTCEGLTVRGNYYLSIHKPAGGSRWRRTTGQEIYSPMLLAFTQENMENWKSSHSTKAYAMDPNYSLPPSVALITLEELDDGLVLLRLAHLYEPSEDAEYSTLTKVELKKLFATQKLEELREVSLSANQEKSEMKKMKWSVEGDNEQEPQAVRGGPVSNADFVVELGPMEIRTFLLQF

β-glucosidase = conditions: literature, enzyme source not stated; cited from earlier work
α-glucosidase (yeast) [6] = tested on: T4, α-glucosidase (yeast); experiment: Inhibition of yeast α-glucosidase, hydrolysis of p-nitrophenylglucoside followed spectrophotometrically; type: biochemical
T4 construct: other: p-nitrophenylglucoside substrate, 37° C
Method: (§1) The inhibitory activity of 3 against a series of enzyme was tested. Enzymes were assayed according to standard procedures (Halvorson, H. O., Methods Enzymol. 8, 55 (1966)) by following the hydrolysis of nitrophenyl glycosides spectrophotometrically or by evaluating the reducing sugar formed in some glucosidase assays. The enzymes used were α-glucosidase (yeast and rice), β-glucosidase (almond), α-galactosidase (green coffee beans), β-galactosidase (E. coli) and α-mannosidase (jack beans).
(§2) Inhibitory potency of 3 was determined by spectrophotometrically measuring the residual hydrolytic activities of the glycosidases against the corresponding nitrophenyl α- or β-D-glucopyranoside. The glycosidases used were α-glucosidase (yeast), α-glucosidase (rice), β-glucosidase (almond), α-galactosidase (green coffee beans), β-galactosidase (E. coli) and α-mannosidase (jack beans). All enzymes were purchased from Sigma. Each assay was performed in a phosphate or an acetate buffer at the optimal pH for each enzyme. Inhibition studies (except rice α-glucosidase) were performed by adding the inhibitor to a final concentration of 0.05 mM to 11 mM to the respective buffer solutions along with enzyme. The solutions were incubated at 37° C. before adding substrates to the solutions. The absorbance of the resulting mixture was determined at 400 nm (for p-nitrophenol).

α-glucosidase (rice) [7] = target: T2, α-glucosidase (rice); experiment: Inhibition of rice α-glucosidase, maltose substrate, glucose oxidase/peroxidase coupled assay; type: biochemical
Method: as §1
as §2, with “Inhibition studies (except rice α-glucosidase) were performed by adding the inhibitor to a final concentration of 0.05 mM to 11 mM to the respective buffer solutions along with enzyme. The solutions were incubated at 37° C. before adding substrates to the solutions.” left out
For rice α-glucosidase inhibition, maltose was used as the substrate, and the assay was based on the glucose oxidase/peroxidase enzyme procedure. […] The absorbance of the solution was determined at 500 nm for oxidized o-dianisidine. […] The absorbance of the solution was determined at 500 nm.

β-glucosidase (almond) [8] = experiment: Inhibition of almond β-glucosidase, nitrophenyl glycoside hydrolysis; type: biochemical
Method: as §1, §2

[9] = target: T1, α-galactosidase (green coffee beans); experiment: Inhibition of green coffee bean α-galactosidase, nitrophenyl glycoside hydrolysis; type: biochemical
Method: as §1, §2

[10] = target: T5, β-galactosidase (E. coli) (Escherichia coli, UniProt P00722); experiment: Inhibition of E. coli β-galactosidase, nitrophenyl glycoside hydrolysis; type: biochemical
T5 construct: purchased Sigma
Method: as §1, §2

[11] = target: T3, α-mannosidase (jack beans); experiment: Inhibition of jack bean α-mannosidase, nitrophenyl glycoside hydrolysis; type: biochemical
Method: as §1, §2

[12] = literature values, n.i. = no inhibition observed

T1 sequence (Q42656 16-378): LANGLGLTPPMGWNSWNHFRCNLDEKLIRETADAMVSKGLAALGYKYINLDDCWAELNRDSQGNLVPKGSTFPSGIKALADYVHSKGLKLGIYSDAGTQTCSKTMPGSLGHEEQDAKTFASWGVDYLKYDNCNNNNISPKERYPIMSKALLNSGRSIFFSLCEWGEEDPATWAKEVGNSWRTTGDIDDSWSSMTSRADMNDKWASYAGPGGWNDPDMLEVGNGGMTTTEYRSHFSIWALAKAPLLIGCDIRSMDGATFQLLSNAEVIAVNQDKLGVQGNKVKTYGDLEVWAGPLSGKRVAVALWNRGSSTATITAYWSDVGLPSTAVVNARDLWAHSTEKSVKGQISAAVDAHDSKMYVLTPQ
T5 sequence (P00722 2-1024): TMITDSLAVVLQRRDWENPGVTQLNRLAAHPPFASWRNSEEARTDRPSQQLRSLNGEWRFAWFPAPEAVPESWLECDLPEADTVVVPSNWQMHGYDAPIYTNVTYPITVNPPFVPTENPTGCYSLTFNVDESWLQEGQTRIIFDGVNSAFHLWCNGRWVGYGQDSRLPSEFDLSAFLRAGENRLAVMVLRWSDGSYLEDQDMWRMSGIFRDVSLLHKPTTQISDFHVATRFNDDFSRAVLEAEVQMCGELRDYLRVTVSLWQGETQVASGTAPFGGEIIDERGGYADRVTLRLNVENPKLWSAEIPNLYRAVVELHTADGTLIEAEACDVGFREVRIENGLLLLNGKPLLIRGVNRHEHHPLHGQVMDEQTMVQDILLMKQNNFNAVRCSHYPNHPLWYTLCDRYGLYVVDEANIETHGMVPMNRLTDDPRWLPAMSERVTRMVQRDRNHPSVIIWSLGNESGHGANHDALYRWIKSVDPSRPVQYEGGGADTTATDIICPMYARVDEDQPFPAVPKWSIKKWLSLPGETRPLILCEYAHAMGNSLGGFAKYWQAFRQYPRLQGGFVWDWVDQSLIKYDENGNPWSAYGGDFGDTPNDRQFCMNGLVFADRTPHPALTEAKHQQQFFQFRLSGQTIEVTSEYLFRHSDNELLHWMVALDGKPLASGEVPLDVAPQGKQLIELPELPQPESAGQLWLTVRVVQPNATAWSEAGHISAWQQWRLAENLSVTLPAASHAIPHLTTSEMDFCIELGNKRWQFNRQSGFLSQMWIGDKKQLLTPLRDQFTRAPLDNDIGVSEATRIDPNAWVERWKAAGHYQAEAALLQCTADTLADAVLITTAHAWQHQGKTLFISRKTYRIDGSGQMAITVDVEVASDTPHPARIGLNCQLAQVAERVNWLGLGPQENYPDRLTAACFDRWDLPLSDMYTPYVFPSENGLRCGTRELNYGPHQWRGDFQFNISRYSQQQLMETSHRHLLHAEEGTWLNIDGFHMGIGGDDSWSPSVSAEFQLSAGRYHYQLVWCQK
T2 sequence (Q653V7 34-885): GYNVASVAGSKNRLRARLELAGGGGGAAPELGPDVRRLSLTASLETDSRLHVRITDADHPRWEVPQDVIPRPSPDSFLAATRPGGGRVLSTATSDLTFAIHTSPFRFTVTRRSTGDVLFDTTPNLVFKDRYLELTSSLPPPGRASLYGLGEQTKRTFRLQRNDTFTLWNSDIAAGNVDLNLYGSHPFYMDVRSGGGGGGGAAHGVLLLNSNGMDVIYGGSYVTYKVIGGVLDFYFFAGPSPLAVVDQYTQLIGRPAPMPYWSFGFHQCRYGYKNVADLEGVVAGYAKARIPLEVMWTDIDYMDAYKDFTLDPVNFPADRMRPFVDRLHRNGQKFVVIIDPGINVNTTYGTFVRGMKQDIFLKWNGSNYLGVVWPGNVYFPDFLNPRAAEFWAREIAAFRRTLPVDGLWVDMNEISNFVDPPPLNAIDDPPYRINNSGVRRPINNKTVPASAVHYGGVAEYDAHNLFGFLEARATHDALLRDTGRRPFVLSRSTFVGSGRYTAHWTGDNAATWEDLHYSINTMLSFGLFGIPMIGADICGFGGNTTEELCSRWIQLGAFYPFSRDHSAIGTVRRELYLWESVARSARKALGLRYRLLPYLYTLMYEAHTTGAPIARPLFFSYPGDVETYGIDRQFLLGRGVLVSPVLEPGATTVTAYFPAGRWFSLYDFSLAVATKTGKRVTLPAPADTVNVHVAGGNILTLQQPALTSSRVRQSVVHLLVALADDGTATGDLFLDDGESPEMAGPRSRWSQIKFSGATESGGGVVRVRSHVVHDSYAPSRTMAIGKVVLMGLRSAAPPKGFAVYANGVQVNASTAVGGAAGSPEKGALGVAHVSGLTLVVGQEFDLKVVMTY

Q: With `NC1=N[C@H](CO)[C@@H](O)[C@H](O)[C@H]1O` [compound 12] as the compound, how does the Ki (α-glucosidase (yeast) [1]) read?
A: Its Ki is roughly 10 µM.

Q: What about the Ki (β-glucosidase (almond) [2]; [12]) of the same compound?
A: Its Ki is 8 µM.

Q: What about the Ki [3] of the same compound?
A: The Ki was roughly 10 µM.

Q: For `O[C@H]1[C@H](O)[C@@H](O)CN2CC[C@H](O)[C@H]12` [Compound 1, castanospermine], which Ki (α-glucosidase (yeast) [1]) is on record?
A: The Ki was greater than 1500 µM.

Q: What about the “Activity against yeast α-glucosidase, in words” value (α-glucosidase (yeast) [1]; literature) of the same compound?
A: The value was “poor activity”.

Q: And the Ki (α-glucosidase (rice) [4])?
A: Its Ki is 0.015 µM.

Q: And the “Activity against rice α-glucosidase, in words” value (α-glucosidase (rice) [4]; literature)?
A: The value was “strongly inhibited”.

Q: What about the Ki (β-glucosidase (almond) [2]; [12]) of the same compound?
A: Its Ki is 1.5 µM.

Q: And the “Activity against almond β-glucosidase, in words” value (β-glucosidase (almond) [2]; literature)?
A: Its value is “inhibiting”.

Q: Which Ki (α-glucosidase (rice) [4]) does the source give for `OC[C@H]1NC[C@H](O)[C@@H](O)[C@@H]1O` [compound 2, deoxynojirimycin] here?
A: The Ki was 0.01 µM.

Q: Which IC50 (α-glucosidase (yeast) [1]; literature value, read-out: Inhibition activity IC50, α-glucosidase (yeast)) does the source give for `O[C@H]1[C@H](O)[C@H](O)CN2CCC[C@H](O)[C@H]12` [compound 11] here?
A: Its IC50 is greater than 2000 µM.

Q: And the IC50 (β-glucosidase (almond) [2]; literature value, read-out: Inhibition activity IC50, β-glucosidase (almond))?
A: The IC50 was greater than 2000 µM.

Q: And the IC50 ([5]; literature value, read-out: Inhibition activity IC50, α-mannosidase (jack beans))?
A: The IC50 was greater than 2000 µM.

Q: And the “Inhibition of α-mannosidase, in words” value ([5]; literature)?
A: The value was “extremely poor inhibition”.

Q: What does the source list for `O[C@@H]1[C@@H](O)[C@H](O)N2CCCC[C@H]2[C@H]1O` [compound 10]?
A: Inhibition activity Ki, β-glucosidase (almond) (β-glucosidase (almond) [2]; [12]): n.i.; Inhibition activity Ki, α-galactosidase (green coffee beans) [3]: n.i.

Q: With `CC1(C)O[C@H]2[C@H](O1)[C@@H](O)CSC[C@@H]2O` [compound 13] as the compound, how does the “Activity against a β-glucosidase, in words” value (β-glucosidase) read?
A: Its value is “inactive”.

Q: Which “Type of inhibition, yeast α-glucosidase” value (α-glucosidase (yeast) [6]; double reciprocal plots, FIG. 6A) does the source give for `O[C@H]1[C@H](O)[C@@H](O)CN2CCSC[C@H]12` [Compound 3, 7(S),8(R),9(R),10(S)-Trihydroxy-2-thiaquinolizidine] here?
A: The value was “competitive inhibition”.

Q: What about the Ki (α-glucosidase (yeast) [6]; p-nitrophenylglucoside substrate, 37° C.) of the same compound?
A: Its Ki is 330 µM.

Q: What about the “Type of inhibition, rice α-glucosidase” value (α-glucosidase (rice) [7]; FIG. 6B) of the same compound?
A: The value was “competitive inhibition”.

Q: And the Ki (α-glucosidase (rice) [7]; maltose substrate, sodium acetate buffer pH 4.0, 37° C.)?
A: The Ki was 900 µM.

Q: What about the “Inhibitory activity towards β-glucosidase (almond), in words” value (β-glucosidase (almond) [8]; inhibitor 0.05 mM to 11 mM) of the same compound?
A: The value was “No inhibitory activity”.

Q: And the “Inhibition activity Ki, β-glucosidase (almond)” value (β-glucosidase (almond) [8]; n.i. = no inhibition observed)?
A: Its value is “n.i.^b”.

Q: What about the “Inhibitory activity towards α-galactosidase (green coffee beans), in words” value ([9]; inhibitor 0.05 mM to 11 mM) of the same compound?
A: Its value is “No inhibitory activity”.

Q: And the “Inhibition activity Ki, α-galactosidase (green coffee beans)” value ([9]; n.i. = no inhibition observed)?
A: Its value is “n.i.^”.

Q: What about the “Inhibitory activity towards β-galactosidase (E-coli), in words” value ([10]; inhibitor 0.05 mM to 11 mM) of the same compound?
A: The value was “No inhibitory activity”.

Q: What about the “Inhibition activity Ki, β-galactosidase (E. Coli)” value ([10]; n.i. = no inhibition observed) of the same compound?
A: The value was “n.i.^”.

Q: And the “Inhibitory activity towards α-mannosidase (jack bean), in words” value ([11]; inhibitor 0.05 mM to 11 mM)?
A: The value was “No inhibitory activity”.

Q: What about the “Inhibition activity Ki, α-mannosidase (jack beans)” value ([11]; n.i. = no inhibition observed) of the same compound?
A: The value was “n.i.^”.

Reference: patent US7342010B2, “2-thiaquinolizidines and process for the preparation thereof” (Board of Trustees of Michigan State University, priority 2004, dated 2008)
